How the values were obtained:
[1] = system: human intestinal epithelial cells derived from IPSCs; assay: Transepithelial electrical resistance (TEER) on microfluidic chip; format: cell-based; settings: IFNgamma 10 ng/ml, basal administration, over time, n=4
Experimental: (§1) Intestinal epithelium, derived from iPSCs, is seeded onto the microfluidic device followed by characterization of intestinal epithelial subtypes. Functional assays, including an examination of permeability via transepithelial resistance and dextran FITC efflux will be assessed either under basal conditions or in response to inflammatory cytokines such as interferon-gamma (IFNg) and/or tumor necrosis factor-alpha (TNFalpha). Also drug candidates that may modulate the various intestinal epithelial subtypes will be examined to assess if such subtypes can indeed be modulated. After establishing such assays, IPSCs from genetically defined inflammatory bowel disease (IBD) patients will be generated, differentiated into intestinal organoids, disassociated and subsequently seeded onto the microfluidic devices and the functional consequences of the genetic variations associated with IBD will be assessed.
(§2) Human intestinal epithelial cells derived from IPSCs were treated with 10 ng/ml of IFNgamma. The basal administration of IFNg leads to a decrease in transepithelial resistance and an increase in the efflux of dextran FITC in human intestinal epithelial cells derived from IPSCs. Basically this means that the intestinal epithelium is more permeable in response to this cytokine.

[2] = system: STAT1 and IFNgamma responsive genes; assay: STAT1 phosphorylation and gene expression in iPSC-derived intestinal epithelium on microfluidic device; format: cell-based, human; settings: administration to the lower channel
Experimental: In one embodiment, iPSCs were directed to form HIOs and were subsequently dissociated to a single cell suspension. These cells were then seeded into a small microfluidic device (SMD) which is composed of two chambers separated by a porous flexible membrane. See, FIG. 40.

[3] = system: human intestinal epithelial cells derived from IPSCs; assay: FITC dextran permeability on microfluidic chip; format: cell-based; settings: for permeability co-efficient of FITC dextran added to the apical channel / efflux of dextran FITC / accumulation in the basal layer: IFNgamma 10 ng/ml; for efflux of dextran FITC / accumulation in the basal layer: dextran added to apical channel
Experimental: as §1, §2

[4] = system: Caco2 cells; assay: Gene expression in Caco2 cells treated with IFNgamma; format: cell-based, human
[5] = system: mitochondrial respiration in iFGEs; assay: Seahorse mitochondrial stress test in iFGEs; format: cell-based, human
Experimental: (§3) The Seahorse XF^e24 Extracellular Flux Analyzer (Seahorse Biosciences) was used to perform mitochondrial stress tests and obtain real-time measurements of oxygen consumption rate (OCR) in cells. iFGEs and iHTNS treated with or without EDCs were seeded in a 24-well Seahorse culture plate at a density of 10,000-15,000 cells/well. For analysis of OCR, cells were reconstituted in Seahorse base medium and were allowed to settle for 1 hour at 37° C. in non-CO2 incubator before measurements. Chemical reagents (Sigma) were used at final concentrations as follows: 1 μM Oligomycin—an ATP synthase inhibitor, 1 μM (FCCP) carbonyl cyanide 4-(trifluoromethoxy)phenylhydrazone—an uncoupling agent, and a mixture of 0.5 μM antimycin A—a cytochrome C reductase inhibitor and 0.5 μM rotenone—a complex I inhibitor. Results were normalized to protein concentration determined by BCA assay (Thermo Scientific).

[6] = system: mitochondrial respiration in iHTNs; assay: Seahorse mitochondrial stress test in iHTNs; format: cell-based, human
Experimental: as §3

Compound: IFNgamma: inflammatory cytokine interferon-gamma
- transepithelial electrical resistance (TEER) [1]: loss of transepithelial electrical resistance
- transepithelial electrical resistance (TEER) ([1]; listed as IFNg): decrease
- expression of IFNgamma responsive genes IDO1, GBP4 and/or GBP5 [2]: significant upregulation
- expression of phospholipase A2 group 2A and Muc4 [2]: also upregulated
- phosphorylation of STAT1 [2]: phosphorylation of STAT1
- permeability co-efficient of FITC dextran added to the apical channel [3]: increase
- efflux of dextran FITC / accumulation in the basal layer [3]: increase
- efflux of dextran FITC / accumulation in the basal layer ([3]; listed as INFgamma): accumulation in the basal layer
- expression of genes associated with intestinal epithelial subtypes [4]: no corresponding upregulation

Compound: O=C(O)C(F)(F)C(F)(F)C(F)(F)C(F)(F)C(F)(F)C(F)(F)C(F)(F)F [PFOA, Perfluorooctanoic acid]
- effect on mitochondrial spare respiratory capacity [5]: did not show any effect
- effect on mitochondrial spare respiratory capacity [6]: did not show any effect

Compound: Cc1cc(C(C)(C)C)c(O)c(C(C)(C)C)c1 [BHT, Butylated hydroxytoluene]
- effect on mitochondrial spare respiratory capacity [5]: significant decrease
- effect on mitochondrial spare respiratory capacity [6]: significant impairment

Compound: Tributyltin [TBT]
- effect on mitochondrial spare respiratory capacity [6]: significant impairment

Compound: TNFalpha
- transepithelial electrical resistance (TEER) [1]: increased TEER over time comparable to controls
- permeability co-efficient of FITC dextran added to the apical channel [3]: comparable
- efflux of dextran FITC / accumulation in the basal layer [3]: comparable
- intestinal permeability ([3]; addition of TNFa): does not elicit any change

Source: patent US12378528B2, “Systems and methods for growth of intestinal cells in microfluidic devices” (EMULATE, INC., priority 2016, dated 2025)
